# Measured values as given in patent US20240165097A1, “PHARMACEUTICAL COMPOSITION FOR THE TREATMENT OF ALZHEIMER'S DISEASE OR DEMENTIA” (Heptares Therapeutics Limited, priority 2021, published 2024).
# Like-named read-outs stand apart in the source and are kept apart here.
# Assay: Example C: HTL0018318 plasma and urine pharmacokinetics
# Assay type: in vivo, human
# Details: for CL renal / Cmax / AUC / AUC(0-inf) / half-life / Tmax: human, oral; for Cmax / AUC / AUC(0-inf) / half-life / Tmax: plasma; for AUC: Tau = 24 hrs, read-out: AUC0-tau (mean); for AUC(0-inf): read-out: AUC0-inf (mean)
# Procedure: On the days between, only pre-dose PK samples were taken. The last PK blood sample was taken between 7-14 days after the last HTL0018318 dose (Table 7).
# For these calculations, data of 15 mg and 25 mg HTL0018318 were grouped together. […]
# All PK analyses were performed in Phoenix 64 build 6.4.0.768 using WinNonlin 6.4. Statistical analysis was performed in R version 3.3.1 (2016-06-21) Copyright (C) 2016 The R Foundation for Statistical Computing (Platform: x86_64-w64-mingw32/x64 64-bit).
# [1] = fifth dose, 15 and 25 mg grouped
# [2] = first dose, 15 and 25 mg grouped
compound,measurement,setting,value
"CCOC(=O)N1C2CCC1CC(N1CCC3(CC1)CNC(=O)C3)C2 (stereo not drawn) [HTL0018318, ethyl 3-(3-oxo-2,8-diazaspiro[4.5]dec-8-yl)-8-azabicyclo[3.2.1]octane-8-carboxylate]",Ae (mean),"15 mg + DPZ, 1st dose",39.9%
same,CL/F (mean),"15 mg + DPZ, 1st dose",14.7 L/h
same,Ae (mean),"15 mg + DPZ, 5th dose",51.5%
same,CL/F (mean),"15 mg + DPZ, 5th dose",14.0 L/h
same,mean ratio AUC0-tau fifth dose / AUC0-inf first dose,15 mg alone,1.04
same,mean ratio AUC0-tau fifth dose / AUC0-tau first dose,15 mg alone,1.27
same,Ae (mean),"15 mg only, 1st dose",39.2%
same,CL/F (mean),"15 mg only, 1st dose",14.2 L/h
same,Ae (mean),"15 mg only, 5th dose",47.9%
same,CL/F (mean),"15 mg only, 5th dose",14.0 L/h
same,mean ratio AUC0-tau fifth dose / AUC0-inf first dose,"15 mg, donepezil co-dosed",1.04
same,mean ratio AUC0-tau fifth dose / AUC0-tau first dose,"15 mg, donepezil co-dosed",1.23
same,Ae (mean),"25 mg + DPZ, 1st dose",41.1%
same,CL/F (mean),"25 mg + DPZ, 1st dose",17.0 L/h
same,Ae (mean),"25 mg + DPZ, 5th dose",47.7%
same,CL/F (mean),"25 mg + DPZ, 5th dose",16.0 L/h
same,mean ratio AUC0-tau fifth dose / AUC0-inf first dose,25 mg alone,1.06
same,mean ratio AUC0-tau fifth dose / AUC0-tau first dose,25 mg alone,1.23
same,Ae (mean),"25 mg only, 1st dose",32.6%
same,CL/F (mean),"25 mg only, 1st dose",17.6 L/h
same,Ae (mean),"25 mg only, 5th dose",44.1%
same,CL/F (mean),"25 mg only, 5th dose",16.6 L/h
same,mean ratio AUC0-tau fifth dose / AUC0-inf first dose,"25 mg, donepezil co-dosed",1.03
same,mean ratio AUC0-tau fifth dose / AUC0-tau first dose,"25 mg, donepezil co-dosed",1.21
same,pharmacokinetic steady-state reached,daily dosing 15 or 25 mg,on or before the fifth daily dose
same,"ratio of AUC0-tau, in combination with donepezil vs alone",[1],1.00
same,"ratio of Cmax, in combination with donepezil vs alone",[1],1.04
same,"ratio of Cmin, in combination with donepezil vs alone",[1],0.911
same,"ratio of Tmax, in combination with donepezil vs alone",[1],0.974
same,"ratio of AUC0-24, in combination with donepezil vs alone",[2],1.02
same,"ratio of Cmax, in combination with donepezil vs alone",[2],1.05
same,"ratio of Tmax, in combination with donepezil vs alone",[2],1.01
same,CL renal,"plasma and urine, 25 mg + DPZ, 1st dose",129 mL/min
same,CL renal,"plasma and urine, 25 mg + DPZ, 5th dose",113 mL/min
same,CL renal,"plasma and urine, 25 mg, 25 mg only, 1st dose",104 mL/min
same,CL renal,"plasma and urine, 25 mg, 25 mg only, 5th dose",109 mL/min
same,Cmax,"15 mg + DPZ, 1st dose",91.2 ng/mL
same,AUC,"15 mg + DPZ, 1st dose",932 ng·h/mL
same,AUC(0-inf),"15 mg + DPZ, 1st dose",1120 ng·h/mL
same,half-life,"15 mg + DPZ, 1st dose, read-out: Half-life (mean) (converted)",538 min
same,Tmax,"15 mg + DPZ, 1st dose, read-out: Tmax (median)",2.5 h
same,Cmax,"15 mg + DPZ, 5th dose",109 ng/mL
same,AUC,"15 mg + DPZ, 5th dose",1150 ng·h/mL
same,half-life,"15 mg + DPZ, 5th dose, read-out: Half-life (mean) (converted)",696 min
same,Tmax,"15 mg + DPZ, 5th dose, read-out: Tmax (median)",1.74 h
same,Cmax,"15 mg, 15 mg only, 1st dose",83.4 ng/mL
same,AUC,"15 mg, 15 mg only, 1st dose",919 ng·h/mL
same,AUC(0-inf),"15 mg, 15 mg only, 1st dose",1130 ng·h/mL
same,half-life,"15 mg, 15 mg only, 1st dose, read-out: Half-life (mean) (converted)",555 min
same,Tmax,"15 mg, 15 mg only, 1st dose, read-out: Tmax (median)",2 h
same,Cmax,"15 mg, 15 mg only, 5th dose",103 ng/mL
same,AUC,"15 mg, 15 mg only, 5th dose",1180 ng·h/mL
same,half-life,"15 mg, 15 mg only, 5th dose, read-out: Half-life (mean) (converted)",828 min
same,Tmax,"15 mg, 15 mg only, 5th dose, read-out: Tmax (median)",2.05 h
same,Cmax,"25 mg + DPZ, 1st dose",139 ng/mL
same,AUC,"25 mg + DPZ, 1st dose",1410 ng·h/mL
same,AUC(0-inf),"25 mg + DPZ, 1st dose",1710 ng·h/mL
same,half-life,"25 mg + DPZ, 1st dose, read-out: Half-life (mean) (converted)",524 min
same,Tmax,"25 mg + DPZ, 1st dose, read-out: Tmax (median)",1.76 h
same,Cmax,"25 mg + DPZ, 5th dose",171 ng/mL
same,AUC,"25 mg + DPZ, 5th dose",1740 ng·h/mL
same,half-life,"25 mg + DPZ, 5th dose, read-out: Half-life (mean) (converted)",642 min
same,Tmax,"25 mg + DPZ, 5th dose, read-out: Tmax (median)",2 h
same,Cmax,"25 mg, 25 mg only, 1st dose",135 ng/mL
same,AUC,"25 mg, 25 mg only, 1st dose",1370 ng·h/mL
same,AUC(0-inf),"25 mg, 25 mg only, 1st dose",1650 ng·h/mL
same,half-life,"25 mg, 25 mg only, 1st dose, read-out: Half-life (mean) (converted)",511 min
same,Tmax,"25 mg, 25 mg only, 1st dose, read-out: Tmax (median)",1.75 h
same,Cmax,"25 mg, 25 mg only, 5th dose",162 ng/mL
same,AUC,"25 mg, 25 mg only, 5th dose",1710 ng·h/mL
same,half-life,"25 mg, 25 mg only, 5th dose, read-out: Half-life (mean) (converted)",804 min
same,Tmax,"25 mg, 25 mg only, 5th dose, read-out: Tmax (median)",1.76 h
same,Tmax,"25 mg, 15 and 25 mg, with and without donepezil, read-out: Tmax, range over groups",1.74 to 2.5 h
same,half-life,"25 mg, 15 and 25 mg, with and without donepezil, read-out: half-life following the fifth dose, range over groups",642 to 828 min
same,CL renal,"urine and plasma, 15 mg + DPZ, 1st dose",109 mL/min
same,CL renal,"urine and plasma, 15 mg + DPZ, 5th dose",109 mL/min
same,CL renal,"urine and plasma, 15 mg, 15 mg only, 1st dose",109 mL/min
same,CL renal,"urine and plasma, 15 mg, 15 mg only, 5th dose",104 mL/min
